Where two headings read alike, the source gives them in different places.
Key:
[1] = tested on: ovariectomized mature female rats; assay: Ovariectomized mature female rat model; assay type: in vivo; details: for uterine wet weight decrease after OVX surgery / bone density decrease caused by OVX (uCT trabecular bone in the femur, pQCT distal femur): daily for 8 weeks, 17α-ethynylestradiol 0.03 mg/kg/day; for uterine wet weight decrease after OVX surgery: Compound 1 0.01, 0.05, 0.25 mg/kg (all doses); for bone density decrease caused by OVX (uCT trabecular bone in the femur, pQCT distal femur): Compound 1 0.01, 0.05, 0.25 mg/kg
Method: Ovariectomized mature female rats are used to characterize primarily bone activity of the compositions provided herein or the individual SERM or SARM compounds. A sham group is used as control. The model can be run in either maintenance mode where the animals are dosed one day after the ovariectomy or restoration mode where the animals are dosed seven to eight weeks after the surgery. The rats are scanned by dual energy x-ray absorptiometry and sorted into experimental groups based upon femoral bone mineral content (BMC). Three dosages of testing compositions/compounds are administered orally once a day for 4, 8, or 12 weeks and estradiol and testosterone are administered subcutaneously to the reference groups. Animals received subcutaneous injections of fluorochrome markers for bone histomorphometric analysis. Alizarian Red S was prepared as a 3% solution and given at a dose of 30 mg/kg at the time of the baseline scan. Calcein was administered 10 days and 3 days prior to necropsy.
Approximately 24 hours after the last dose, blood is collected and the gastrocnemius muscle, plantaris muscle, uterus, clitoral glands, clitoris and inguinal fat pads were isolated, blotted and weighed individually. The left femur and lumbar vertebra L5 are wrapped in saline-soaked gauze and stored at −20° C. for biochemical analysis. The right femur and lumbar vertebrae L3-L4 are collected and stored in 70% ethanol for histomorphometry. The right tibia is collected in formalin for histological analysis. The left tibia is collected on dry ice and stored at −20° C. for measurement of alkaline phosphatase activity.
BMC, bone mineral density (BMD) and bone length are measured by pDEXA on an entire femur. The coefficient of variation for repeated measurement of the isolated femur is less than 0.4% for the BMC and the BMD measurements. […] Serum osteocalcin, a marker for bone turnover, and alkaline phosphatase derived from the tibial periosteum are also measured. Whole femurs are collected for biomechanical analysis and thawed at room temperature prior to testing. Peak load and peak displacement are measured directly from the load cell and the crosshead, respectively. Stiffness is calculated from the slope of the linear region of the load/displacement curve. Lumbar vertebra L5 is also measured in the mechanical testing for bone strength.
Bone histomorphometry is performed to indicate growth of the new bone during the study. The section from the lumbar vertebral bodies is used for histomorphometric indices of cancellous bone, while the sections of the femur mid-shafts are used for histomorphometric indices of cortical bone.
Body weight, gastrocnemius weight and plantaris weight changes are measured indicating anabolic activity of the testing compositions/compounds on skeletal muscle. Inguinal fat pad weight is used as a representative fat pad to assess the effects of the testing compounds on body fat. Clitoral gland and clitoral weights are measured to assess the virilizing effect of drugs.
In the maintenance node of this model, (5R,6S)-6-phenyl-5-[4-(2-pyrrolidin-1-ylethoxy)phenyl]-5,6,7,8-tetrahydronaphthalen-2-ol (Compound 1) was dosed daily at 0 (sham), 0 (OVX), 0.01, 0.05, and 0.25 mg/kg for 8 weeks and 17α-ethynylestradiol was dosed at 0.03 mg/kg/day. […] Micro-computerized tomography (uCT) measured the density and connectivity of the trabecular bone in the femur and pQCT measured at the distal femur.
In the restoration mode of this osteopenic female rat model, 4-(2(R)-(1(S)-hydroxyl-2,2,2-trifluoroethyl)-pyrrolidinyl)-2-trifluoromethylbenzonitrile (Compound 2, Formula I, R^1═CF3, R^2═R^3═H) was dosed at 0 (sham), 0 (OVX), 0.03, 0.3, and 3 mg/kg orally for 12 weeks. […] Compound 2 suppressed cancellous bone turnover while increasing trabecular bone volume and increasing bone mineral density at the lumbar spine.
In the same experiment of Compound 2, another SARM compound, ostarine, was dosed at 0.03, 0.3, and 3 mg/kg/day orally for 12 weeks.

[2] = tested on: intact cynomolgus male and female monkeys; assay: Intact cynomolgus monkey model; assay type: in vivo; details: Day 90
Method: Intact cynomolgus male and female monkeys are used to assess of the effects of the compositions provided herein or the individual SERM or SARM compounds on hypothalamic-pituitary-gonadal axis and lipid profile. All animals are dosed via oral or nasol gavage once daily for consecutive days with either vehicle or testing articles of different doses. The first day of dosing is designated Day 1 for all animals. Blood samples are collected for analysis of LH, FSH, T, Estrodiol, total cholesterol, triglycerides, cortisol, and coagulation parameters included prothrombin time (PT) and activated partial thromboplastin time on Days −3 and end of the study.
In this model, Compound 2 was dosed at 0, 5, 50, 150, and 450 mg/kg/day for 14 days. […] In a separate study, the compound was dosed at 0, 3, 10, 30, 120, and 500 mg/kg/day for 30 days. […] Serum testosterone was suppressed in males as indicated by lower 75th, 50th, and 25th percentile values in samples from treated monkeys than vehicle controls.
In this model, Compound 1 was dosed at 0, 1, 5, and 15 mg/kg/day for 3 months.

healthy male subjects = assay type: in vivo, human
Method: In a random, double-blind, placebo controlled study, Compound 1 was given orally to healthy male subjects age from 18 to 45 years. Subjects received either placebo or Compound 1 under fasted/fed conditions at single escalating doses of 0, 1, 3, 10, 30, and 100 mg. Total serum T level was determined at days 0, 1, 7, 14, 21, and 28.

ER = details: read-out: IC50 binding affinity to ER; cited from earlier work
postmenopausal women = details: cited from earlier work
[3] = tested on: intact cynomolgus male and female monkeys; assay: Intact cynomolgus monkey model; assay type: in vivo; details: females, Day 90
[4] = tested on: orchidectomized male Sprague-Dawley rat; assay: Orchidectomized mature male rat model; details: based on AUC-activity relationship analysis
[5] = molecular target: T1, 5α-reductase type I isoenzyme (Homo sapiens, UniProt P18405); details: cited from earlier work
T1 sequence (P18405 1-259): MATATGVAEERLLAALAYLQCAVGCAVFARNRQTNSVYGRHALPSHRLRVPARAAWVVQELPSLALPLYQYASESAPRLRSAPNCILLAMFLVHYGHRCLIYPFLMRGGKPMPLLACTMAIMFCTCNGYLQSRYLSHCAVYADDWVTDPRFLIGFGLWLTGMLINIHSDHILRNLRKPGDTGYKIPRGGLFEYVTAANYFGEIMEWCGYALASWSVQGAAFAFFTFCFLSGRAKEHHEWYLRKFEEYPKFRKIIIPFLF

prostate DHT level = details: in clinic; up to; cited from earlier work
[6] = 100 mg fasted, single oral dose
[7] = OVX rat, subcutaneous reference

Compound: Oc1ccc2c(c1)CC[C@H](c1ccccc1)[C@@H]2c1ccc(OCCN2CCCC2)cc1 [Compound 1, (5R,6S)-6-phenyl-5-[4-(2-pyrrolidin-1-ylethoxy)phenyl]-5,6,7,8-tetrahydronaphthalen-2-ol]
- bone strength on the lumbar vertebrae ([1]; maintenance mode, 8 weeks daily dosing): maintained the bone strength
- uterine wet weight decrease after OVX surgery ([1]; maintenance mode): block the decrease but at much less extend
- bone density decrease caused by OVX (uCT trabecular bone in the femur, pQCT distal femur) ([1]; maintenance mode): prevent the bone density decrease
- triglycerides ([2]; especially in males, 1, 5, 15 mg/kg/day for 3 months): significant increase
- serum cholesterol increase, of the corresponding Day −7 values ([2]; females, 15 mg/kg/day for 3 months): 7.8%
- serum cholesterol ([2]; males, 1, 5, 15 mg/kg/day for 3 months): did not change
- Changes of T levels from baseline, Day 1 2 h (healthy male subjects; 1 mg fasted, single oral dose): 9.9%
- Changes of T levels from baseline, Day 29 (healthy male subjects; 1 mg fasted, single oral dose): 18%
- Changes of T levels from baseline, Day 1 2 h (healthy male subjects; 3 mg fasted, single oral dose): 13%
- Changes of T levels from baseline, Day 22 (healthy male subjects; 3 mg fasted, single oral dose): 68%
- Changes of T levels from baseline, Day 29 (healthy male subjects; 3 mg fasted, single oral dose): 50%
- Changes of T levels from baseline, Day 1 2 h (healthy male subjects; 10 mg fasted, single oral dose): −0.5%
- Changes of T levels from baseline, Day 15 (healthy male subjects; 10 mg fasted, single oral dose): 67%
- Changes of T levels from baseline, Day 22 (healthy male subjects; 10 mg fasted, single oral dose): 81%
- Changes of T levels from baseline, Day 29 (healthy male subjects; 10 mg fasted, single oral dose): 29%
- Changes of T levels from baseline, Day 1 2 h (healthy male subjects; 30 mg fasted, single oral dose): −6.9%
- Changes of T levels from baseline, Day 1 12 h (healthy male subjects; 30 mg fasted, single oral dose): −64%
- Changes of T levels from baseline, Day 8 (healthy male subjects; 30 mg fasted, single oral dose): 39%
- Changes of T levels from baseline, Day 15 (healthy male subjects; 30 mg fasted, single oral dose): 71%
- Changes of T levels from baseline, Day 22 (healthy male subjects; 30 mg fasted, single oral dose): 78%
- Changes of T levels from baseline, Day 29 (healthy male subjects; 30 mg fasted, single oral dose): 81%
- Changes of T levels from baseline, Day 1 12 h (healthy male subjects; [6]): −50%
- Changes of T levels from baseline, Day 8 (healthy male subjects; [6]): 84%
- Changes of T levels from baseline, Day 15 (healthy male subjects; [6]): 104%
- Changes of T levels from baseline, Day 22 (healthy male subjects; [6]): 92%
- Changes of T levels from baseline, Day 29 (healthy male subjects; [6]): 114%
- Changes of T levels from baseline, Day 1 12 h (healthy male subjects; 100 mg fed, single oral dose): −48%
- Changes of T levels from baseline, Day 8 (healthy male subjects; 100 mg fed, single oral dose): 86%
- Changes of T levels from baseline, Day 15 (healthy male subjects; 100 mg fed, single oral dose): 89%
- Changes of T levels from baseline, Day 29 (healthy male subjects; 100 mg fed, single oral dose): 91%
- stimulation of T production (pharmacokinetic/pharmacodynamic profile in men) (healthy male subjects; men): superior potency and prolonged mechanism of action
- total serum T level (healthy male subjects; single escalating oral doses 1 to 100 mg): dose related increase
- beneficial effects in postmenopausal women (postmenopausal women): reduced risks of nonvertebral and vertebral fractures, ER-positive breast cancer, coronary heart disease, and stroke
- serum cholesterol increase, of the corresponding Day −7 values ([3]; 1 mg/kg/day for 3 months): 26%
- serum cholesterol increase, of the corresponding Day −7 values ([3]; 5 mg/kg/day for 3 months): 16%

Compound: C[C@](O)(COc1ccc(C#N)cc1)C(=O)Nc1ccc(C#N)c(C(F)(F)F)c1 [ostarine]
- exposure at maximal efficacy relative to Compound 2 ([1]; restoration mode, higher exposure = decreased potency): ~10 fold
- potency relative to Compound 2 (fold less) [4]: ~10 fold

Compound: CCC(=O)O[C@H]1CC[C@H]2[C@@H]3CCC4=CC(=O)CC[C@]4(C)[C@H]3CC[C@]12C [Testosterone propionate]
- clitoral gland and clitoral weights (virilizing effect) ([1]; OVX rat, 1 mg/kg daily dose): significantly increases

Compound: C[C@]12CC[C@H]3[C@@H](CCC4=CC(=O)CC[C@@]43C)[C@@H]1CC[C@@H]2O [Testosterone, testosterone]
- femur bending stiffness [1, 7]: increases
- femur bending strength [1, 7]: does not significantly increase

Compound: CC(C)(C)NC(=O)[C@H]1CC[C@H]2[C@@H]3CC[C@H]4NC(=O)C=C[C@]4(C)[C@H]3CC[C@]12C [finasteride, N-(1,1-dimethylethyl)-3-oxo-(5α,17β)-4-azaandrost-1-ene-17-carboxamide]
- IC50 [5]: 42 nM
- reduction of prostate DHT level (prostate DHT level): 85-90%

Compound: 17α-ethynylestradiol
- uterine wet weight decrease after OVX surgery ([1]; maintenance mode): completely blocked
- bone density decrease caused by OVX (uCT trabecular bone in the femur, pQCT distal femur) ([1]; maintenance mode): prevent the bone density decrease

Source: patent US10874638B2, “Methods and compositions for modulating hormone levels” (priority 2014, dated 2020)
